Test system: cynomolgus monkeys (Macaca fascicularis)
Experiment: Study III: once-weekly Nal-Glu GnRH-antagonist plus 12 days of norgestimate, three treatment cycles
Type: in vivo
Description: STUDY III. In this study, which is reported in more detail in Contraception, June, 1990, Vol. 31, No. 6, pp. 623-631, six regularly cycling adult female cynomolgus monkeys (Macaca fascicularis) were housed in individual cages in a controlled environment and checked daily for menstrual flow. Each primate underwent a study entry control menstrual cycle in which alternate day blood samples were taken (under ketamine anesthesia, 10 mg/kg, im) to verify maturation of the dominant follicle, presumed ovulation, and corpus luteum function. The experimental design is depicted in FIG. 1. On menstrual cycle days 2, 9, 16, and 23 (onset of menses =Day 1) three of the monkeys were injected sc with 0.1 mg/kg GnRH-antagonist ([Ac-D2 Nal^1, 4ClDPhe^2, D3 Pal^3, Arg^5,DGlu^6 (AA), DAla^10 ]- GnRH; Nal-Glu) in saline. This dose was selected based on dose-response findings reported in Fertil Seril 1987; 48:480-485. On cycle days 15 to 26, each female was administered 25 μg norgestimate/day orally. This treatment regimen (once-weekly GnRH-antagonist plus 12 days of progestin) was repeated for 2 additional cycles (84 days total). Two of the treated monkeys were ovariectomized at the end of the third treatment cycle to evaluate ovarian follicular morphology. […] Three control monkeys received saline injections and blank (progestin placebo) capsules according to the same regimen. Serum samples were assayed by RIA for estradiol, progesterone, LH, and FSH.

Compound | completion of follicular maturation, ovulation and corpus luteum function (0.1 mg/kg sc on cycle days 2, 9, 16, 23, judged by serum LH, E2 and P levels) | LH surges or serum progesterone rises (during the intermittent regimen) | serum progesterone (during the treatment cycles) | transformation of endometrium (sequential norgestimate, histological sections on day 26)
[Ac-D2 Nal^1, 4ClDPhe^2, D3 Pal^3, Arg^5,DGlu^6 (AA), DAla^10 ]- GnRH [Nal-Glu] | effectively blocked | NO LH surges or serum progesterone rises were detected | < 0.1 ng/mL | 
C#C[C@]1(OC(C)=O)CC[C@H]2[C@@H]3CCC4=CC(=NO)CC[C@@H]4[C@H]3CC[C@@]21CC (mixture of isomers) [norgestimate] |  |  |  | effectively transformed proliferative to secretory endometrium
